From PubChem BioAssay (NCI) come the findings set out here.

Among the test systems are MDA-MB-231 breast; MALME-3M melanoma; SK-MEL-5 melanoma; HCT-116 colon; A498 renal; A549 NSCLC; OVCAR-5 ovarian; NCI-H226 lung; OVCAR-3 ovarian; SK-MEL-2 melanoma.
Common to all, as to assay: NCI-60 cell line screen, 48 h

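These data come from cells grown in 96-well plates and exposed to compound for 48 hours at five concentrations. GI50 marks 50% less growth. At the TGI there is no net growth.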

For the compound `O=C1/C(=C/c2ccc([N+](=O)[O-])o2)Oc2ccc(Cl)cc21`, the GI50 was 1.77 µM in the assay with MDA-MB-231 breast; 2.1 µM in the assay on MALME-3M melanoma; 1.58 µM in the assay on SK-MEL-5 melanoma; 0.648 µM with HCT-116 colon; 14.4 µM in the assay on A498 renal; 6.45 µM with A549 NSCLC. The GI50 was 2.63 µM in the assay on OVCAR-5 ovarian, 1.78 µM in the assay with NCI-H226 lung, 1.7 µM in the assay with OVCAR-3 ovarian and 1.93 µM with SK-MEL-2 melanoma. The TGI was determined as 4.12 µM in the assay on MDA-MB-231 breast; 4.47 µM in the assay with MALME-3M melanoma; 3.03 µM with SK-MEL-5 melanoma; 2.01 µM in the assay on HCT-116 colon; 34 µM in the assay with A498 renal; 59.1 µM in the assay with A549 NSCLC. For the same compound, the TGI was determined as 7.5 µM with OVCAR-5 ovarian, 3.97 µM with NCI-H226 lung, 3.19 µM in the assay with OVCAR-3 ovarian and 3.83 µM in the assay with SK-MEL-2 melanoma.
Regarding `COc1cc(C2NC(=O)C(C#N)=C(Nc3cccc(C)c3)S2)ccc1O` (stereo not given), the GI50 in the assay with MDA-MB-231 breast, with MALME-3M melanoma, in the assay with SK-MEL-5 melanoma, in the assay with HCT-116 colon, in the assay with A498 renal and with A549 NSCLC was over 100 µM each time. Moreover, the GI50 in the assay on OVCAR-5 ovarian, in the assay on NCI-H226 lung, in the assay with OVCAR-3 ovarian and with SK-MEL-2 melanoma was over 100 µM each time. In addition, the TGI in the assay on MDA-MB-231 breast, in the assay on MALME-3M melanoma, in the assay with SK-MEL-5 melanoma, with HCT-116 colon, in the assay with A498 renal and in the assay on A549 NSCLC was over 100 µM each time. The TGI with OVCAR-5 ovarian, with NCI-H226 lung, in the assay on OVCAR-3 ovarian and with SK-MEL-2 melanoma was over 100 µM each time.
